Reference: patent publication US9872840B2, “Effect of garcinol in delaying the progression of diabetic nephropathy” (Delhi Institute of Pharmaceutical Sciences and Research, priority 2013, dated 2018)

What was measured:
STZ diabetic rats [1] = assay: Fasting and post prandial blood glucose in STZ diabetic rats; format: in vivo, rat; parameters: Reduction of post prandial glucose: concentration or dose not given beside the values
Method: The Garcinol used for the experimental studies was bought from Sami Labs, Hyderabad. It was administered at the dose of 200 mg/kg dispersed in water with 1% CMC. Further, the experimental procedures were conducted according to the Institutional Animal Ethical Committee (protocol no. DIPSAR/IAEC/2009/01) and CPCSEA guidelines. All rats were housed under conventional conditions with controlled temperature, humidity and light (12 hours light-dark cycle), and were provided with a standard commercial diet and water (ad libitum). Healthy albino rats of Wistar strain were kept for breeding. Diabetes was induced by administration of streptozotocin (STZ, 90 mg/kg, i.p.) to a group of 2 day old pups. Age-matched control rats were given an equal volume of vehicle and considered as ‘Normal’ group of rats. Six weeks after injection, the blood glucose level was measured from the tail vein. Rats with a fasting blood glucose level over 160 mg/dl were considered as diabetic.
After 6 weeks, four groups of animals, each comprising of 8 animals were made. The groups were assigned to receive vehicle or garcinol (200 mg/kg dispersed in 1% CMC); Olmesartan (6 mg/kg/day) and Glimepiride (1 mg/kg/day) once daily for 8 weeks. After the final drug administration, body weight was measured and blood samples were collected in both fasting and post prandial conditions. The kidney of treated and untreated animals were isolated and fixed in 10% buffered formalin solution to prepare paraffin sections.
However, the decrease was less than antidiabetic reference glimepiride treatment (˜27%). Moreover, the reduction of post prandial glucose with garcinol treatment (˜36%) was more than olmesartan (˜10%) but was lower than observed with glimepiride treatment (almost 43%) when compared to diabetic group.

[2] = system: glucose transporter 2 (GLUT2); assay: GLUT-2 protein expression in liver of diabetic rats (Western blot); format: in vivo, rat; details: 8 weeks treatment, FIG. 3
Method: (§1) For determination of glucose transporter 2 (GLUT2) protein expressions in liver and glucose transporter 4 (GLUT4) protein expressions in skeletal muscle; each sample prepared was mixed with 1% sodium dodecyl sulfate and 50 mM dithiothreitol, and the mixture was subjected to electrophoresis with 10% polyacrylamide gel. The separated proteins on the gel were electrotransferred to a polyvinylidene difluoride membrane. After blocking with 5% skim milk solution including 0.05% Poly (Oxyethylene) sorbitan monolaurate (Tween 20) overnight at 4° C., the membrane was reacted with anti-GLUT-2 antibody (Abcam, UK) & anti-GLUT-4 antibody (Abcam, UK) for 2 h. Subsequently, it was incubated with horseradish peroxidase conjugated IgG (diluted 1:2000) [Jackson immunoresearch laboratories, USA] for 2 h at room temperature (Western Blot). Reduced qualitative expression of GLUT2 and GLUT 4 in liver and muscle respectively of diabetic rats were improved with the garcinol treatment (FIG. 3), which were better than observed with olmesartan.

[3] = system: glucose transporter 4 (GLUT4); assay: GLUT-4 protein expression in soleus muscle of diabetic rats (Western blot); format: in vivo, rat; details: 8 weeks treatment, FIG. 3
Method: as §1

STZ diabetic rats [4] = assay: Tubulointerstitial matrix index (Masson's trichrome); format: in vivo, rat; details: kidney of STZ diabetic rats, 8 weeks; semi-quantified; garcinol 200 mg/kg, olmesartan 6 mg/kg, glimepiride 1 mg/kg
Method: Kidney sections were stained with periodic acid-Schiff's reagent and Masson's modified trichrome to assess glomerulosclerosis and collagenous tubulointerstitial matrix, respectively.
The accumulation of matrix within the tubulointerstitial was assessed on Masson's trichrome stained sections. Blue area on a trichrome-stained section was selected for its color range and the proportional area of tissue with this range of color was then semi-quantified as tubulointerstitial matrix index (TIMI).

rat nephrin = assay: Immunohistochemistry for nephrin in kidney; format: in vivo; details: kidney of STZ diabetic rats, 8 weeks; garcinol 200 mg/kg, olmesartan 6 mg/kg, glimepiride 1 mg/kg
Method: Immunohistochemistry was done as previously described according to a modified method using a Polyclonal (C-Terminus) Antibody which is identical to rat nephrin. These experiments were done using 4 micron […] kidney sections, as previously reported. Paraffin-embedded tissues sections were deparaffinized in microwave oven for 3 minutes. The sections were rehydrated in graded series of xylene and alcohols. Endogenous peroxidase activity was blocked by 3% hydrogen peroxide in distilled water for 15 minutes. Antigen retrieval was achieved by steam heating in a solution of citrate buffer, pH 6.0 for 30 minutes. Sections were blocked with 10% normal goat serum for polyclonal antibodies. Sections were then incubated for one hour with primary antibody Polyclonal (C-Terminus) Antibody which is identical to rat nephrin. The sections were then incubated in avidin-biotin complex at 1:25 dilution for 30 min at room temperature and developed using diaminobenzidine (DAB) as chromogen. After washing, the sections were counter-stained with hematoxylin and coverslipped. Negative controls were carried out by incubation in the absence of the primary antibody. The quantification of nephrin was done using point counting technique for each animal as described in established method. Davis B J, Johnston C I, Burrell, L M, Burns W C, Kubota E, Cao Z, Cooper M E, Allen T J. Renoprotective effects of vasopeptidase inhibition in an experimental model of diabetic nephropathy. Diabetologia. 2003; 46(7): 961-71.

STZ diabetic rats [5] = assay: DNA fragmentation assay (TUNEL) for apoptosis in kidney; format: in vivo, rat
Method: For detection and localization of apoptosis in kidney, the technique of terminal deoxynucleotidyl transferase-mediated dUTP nick end labeling (TUNEL) (Apo-BrdU-IHC™ In Situ DNA Fragmentation Assay Kit, Biovison, USA) were employed. Briefly, sections were deparaffinized, hydrated, and digested with proteinase K (20 μg/ml), and then added biotinylated dUTP to the 3′ end of DNA fragments by incubating sections in 0.05 mol/l Tris-HCl buffer (pH 7.6) with 0.03 U/μl TdT and 0.04 nmol/μl biotin-11-dUTP at 37° C. for 1 h. The sections were rinsed in PBS. Endogenous peroxidase was blocked with 0.3% H2O2 in distilled H2O. The sections were rinsed with PBS and covers with 2% blocking solution in 0.1 mol/l sodium maleate to reduce background staining. The sections were then incubated with avidin-peroxidase complexes in PBS (1:50) for 30 min and rinsed with PBS (3×5 min). Peroxidase activity was visualized with 3,3′-diaminobenzidine until the brown product was clearly visible. The sections were then counterstained with methyl green. The positive apoptotic cells were the cells with brown nucleus 2.10.

[6] = baseline before treatment, mean ± S.E.M., eight animals
[7] = once daily for 8 weeks, garcinol 200 mg/kg, olmesartan 6 mg/kg/day, glimepiride 1 mg/kg/day, mean ± S.E.M., eight animals

CCC1=C(C)CN(C(=O)NCCc2ccc(S(=O)(=O)NC(=O)N[C@H]3CC[C@H](C)CC3)cc2)C1=O [Glimepiride, glimepiride]
Reduction of fasting blood glucose (STZ diabetic rats [1]; 8 weeks treatment): ~27%
Reduction of post prandial glucose (STZ diabetic rats [1]; 8 weeks treatment, compared to diabetic group): ~43%
Blood glucose, fasting, before treatment (STZ diabetic rats [1]; [6]): 165.2 ± 1.5 mg/dL
Blood glucose, post prandial, before treatment (STZ diabetic rats [1]; [6]): 308 ± 4.98 mg/dL
Blood glucose, fasting, after treatment (STZ diabetic rats [1]; [7]): 119.2 ± 5.4 mg/dL
Blood glucose, post prandial, after treatment (STZ diabetic rats [1]; [7]): 174 ± 3.75 mg/dL
Qualitative expression of GLUT2 in liver [2]: did not show any improvement
Qualitative expression of GLUT 4 in muscle [3]: did not show any improvement
TIMI (tubulointerstitial matrix index) (STZ diabetic rats [4]): 2
Nephrin (rat nephrin): 20 % FA
Apoptosis (STZ diabetic rats [5]; kidney of STZ diabetic rats, 8 weeks, garcinol 200 mg/kg, olmesartan 6 mg/kg, glimepiride 1 mg/kg): 90 % FA
DNA fragmentation / apoptosis in kidney (qualitative) (STZ diabetic rats [5]; kidney of diabetic rats, FIG. 4): no change in the decrease in apoptosis
